In US20260008758A1, “LINEAR DIPEPTIDYL PEPTIDASE 1 INHIBITORS AND USES THEREOF” (Insmed Incorporated, priority 2024, published 2026):

Experiments:
[1] = biological target: active mouse DPP1 enzyme (Mus musculus (Mouse), UniProt P97821); test: Mouse DPP1 enzyme IC50 assay; format: biochemical; conditions: active mouse DPP1, H-Gly-Arg-AMC substrate 400 μM
Experimental: 25 μL of compound in Assay Buffer plus 5% DMSO was first added to 50 μL of active mouse DPP1 enzyme at a concentration of 62.5 pg/μL and allowed to pre-incubate for 10 minutes at 37° C. after which 50 μL of 1000 μM H-Gly-Arg-AMC substrate (Bachem; St. Torrance, CA) was added, giving final substrate concentration of 400 μM and a final DMSO concentration of 1%. Substrate cleavage was measured for 90 minutes at 37° C., with fluorescence at Excitation/Emission 350/450 nm measured every 5 minutes. DPP1 concentration was interpolated based on its activity relative to a standard curve of recombinant active mouse DPP1 enzyme. IC50 values for each compound were calculated via the XLFit (IDBS Version 5.3.1.3) Add-On to Microsoft Excel using the four parameter fit equation y=(A+((B-A)/(1+((C/x)^D)))), which appears as equation number 205 (4 Parameter Logistic Model or Sigmoidal Dose-Response Model) in XLFit. Default constraints were used for each Parameter.

[2] = biological target: human DPP1 enzyme (Homo sapiens (Human), UniProt P53634); test: Human DPP1 enzyme IC50 assay; format: biochemical; conditions: recombinant human DPP1, H-Gly-Arg-AMC substrate 400 μM
Chain of human DPP1 enzyme (P53634 25-134): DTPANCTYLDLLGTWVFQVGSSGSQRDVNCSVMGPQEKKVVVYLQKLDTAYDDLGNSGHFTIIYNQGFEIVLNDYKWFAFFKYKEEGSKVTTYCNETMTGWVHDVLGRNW
Chain of human DPP1 enzyme (P53634 231-394): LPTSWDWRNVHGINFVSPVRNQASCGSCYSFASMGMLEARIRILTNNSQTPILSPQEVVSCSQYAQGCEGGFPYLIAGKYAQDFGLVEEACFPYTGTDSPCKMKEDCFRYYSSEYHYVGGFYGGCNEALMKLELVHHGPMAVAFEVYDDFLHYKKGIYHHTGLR
Chain of human DPP1 enzyme (P53634 395-463): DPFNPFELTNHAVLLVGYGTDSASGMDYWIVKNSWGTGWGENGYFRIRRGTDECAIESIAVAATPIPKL
Outline: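 Fluorogenic readout (350/450 nm, every 5 min over 90 min, 37°C) of H-Gly-Arg-AMC cleavage at 400 μM final substrate. Compounds met activated DPP1 first for a 10-min 37°C pre-incubation in MES buffer pH 6.0 with DTT, 1% DMSO final. Four-parameter sigmoidal fit gave IC50.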

[3] = biological target: DPP1 in HL-60 cells (Homo sapiens (Human), UniProt P53634); test: DPP1 Cell IC50 assay; format: cell-based; conditions: H-Gly-Phe-AFC substrate, 60 min pre-incubation
Chain of DPP1 in HL-60 cells (P53634 25-134): as the sequence (P53634 25-134) above
Chain of DPP1 in HL-60 cells (P53634 231-394): as the sequence (P53634 231-394) above
Chain of DPP1 in HL-60 cells (P53634 395-463): as the sequence (P53634 395-463) above
Experimental: Media was changed every three to four days and cells were not allowed to exceed 1×10^6 cells per mL. Prior to assay, cells were collected by centrifugation at 500 rcf for 3 minutes, resuspended in PBS and counted. Cells were diluted in PBS to a concentration of 5×10^5 live cells per mL and transferred to black 96-well plates for assay, 60 μL per well. Test articles were diluted in PBS plus 0.5% DMSO, and 20 μL was added to each assay well. Compound was allowed to pre-incubate with cells with gentle shaking at 100 rpm for 60 minutes at 37° C. in a cell culture incubator maintained at 5% CO2, after which 20 μL of 500 μM H-Gly-Phe-AFC substrate (MP Biomedicals; Solon, OH) was added to each well. Plates were returned to the incubator with shaking at 100 rpm for 30 minutes, after which fluorescence was measured at Excitation/Emission 400/505 nm. % Inhibition was calculated from RFU values compared to control cell wells that received only PBS plus 0.5% DMSO. IC50 values for each compound were calculated via the XLFit (IDBS Version 5.3.1.3) Add-On to Microsoft Excel using the four parameter fit equation y=(A+((B-A)/(1+((C/x)^D)))), which appears as equation number 205 (4 Parameter Logistic Model or Sigmoidal Dose-Response Model) in XLFit.

Chain of active mouse DPP1 enzyme (P97821 25-134): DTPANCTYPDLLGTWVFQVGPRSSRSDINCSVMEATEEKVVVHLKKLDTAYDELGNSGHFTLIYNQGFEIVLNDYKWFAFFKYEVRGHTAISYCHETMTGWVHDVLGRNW
Chain of active mouse DPP1 enzyme (P97821 231-393): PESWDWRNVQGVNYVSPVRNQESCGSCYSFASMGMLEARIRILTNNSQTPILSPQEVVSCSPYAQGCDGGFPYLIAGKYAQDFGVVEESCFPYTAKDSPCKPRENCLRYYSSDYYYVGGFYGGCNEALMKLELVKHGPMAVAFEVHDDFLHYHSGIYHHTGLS
Chain of active mouse DPP1 enzyme (P97821 394-462): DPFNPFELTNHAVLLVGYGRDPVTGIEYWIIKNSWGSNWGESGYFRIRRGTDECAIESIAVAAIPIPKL

CN[C@H](C)C(=O)N[C@H](C#N)Cc1ccc(-c2ccc3oc(=O)n(C)c3c2)cc1 [Compound 152, (R)—N—((S)-1-cyano-2-(4-(3-methyl-2-oxo-2,3-dihydrobenzo[d]oxazol-5-yl)phenyl)ethyl)-2-(methylamino)propanamide]
IC50 [1]: ≥ 20 nM
IC50 [2]: ≥ 15 nM

Cn1c(=O)oc2ccc(-c3ccc(C[C@@H](C#N)NC(=O)CNC(=O)c4cccs4)cc3)cc21 [Compound 239, N-[(1S)-1-cyano-2-[4-(3-methyl-2-oxo-1,3-benzoxazol-5-yl)phenyl]ethyl]-2-(thiophen-2-ylformamido)acetamide]
IC50 [1]: ≥ 20 nM

Cn1c(=O)oc2ccc(-c3ccc(C[C@@H](C#N)NC(=O)CCOC(=O)c4cccs4)cc3)cc21 [Compound 244, 2-{[(1S)-1-cyano-2-[4-(3-methyl-2-oxo-1,3-benzoxazol-5-yl)phenyl]ethyl]carbamoyl}ethyl thiophene-2-carboxylate]
IC50 [1]: ≥ 20 nM

Cn1c(=O)oc2ccc(-c3ccc(C[C@@H](C#N)NC(=O)COC(=O)c4cccs4)cc3)cc21 [Compound 245, (S)-2-((1-cyano-2-(4-(3-methyl-2-oxo-2,3-dihydrobenzo[d]oxazol-5-yl)phenyl)ethyl)amino)-2-oxoethyl thiophene-2-carboxylate]
IC50 [1]: ≥ 20 nM

CCCCOCCn1c(=O)oc2ccc(-c3ccc(C[C@@H](C#N)NC(=O)C(C)(N)C4CCC4)c(F)c3)cc21 (stereo partly drawn) [Compound 267, 2-amino-N-[(1S)-2-{4-[3-(2-butoxyethyl)-2-oxo-1,3-benzoxazol-5-yl]-2-fluorophenyl}-1-cyanoethyl]-2-cyclobutylpropanamide]
IC50 [3]: ≥ 2.5 nM
IC50 [2]: ≤ 5 nM

CN(C)CCn1c(=O)oc2ccc(-c3ccc(C[C@@H](C#N)NC(=O)C(C)(N)C4CCC4)c(F)c3)cc21 (stereo partly drawn) [Compound 268, 2-amino-N-[(1S)-1-cyano-2-(4-{3-[2-(dimethylamino)ethyl]-2-oxo-1,3-benzoxazol-5-yl}-2-fluorophenyl)ethyl]-2-cyclobutylpropanamide]
IC50 [3]: 1 to 2.5 nM
IC50 [2]: ≤ 5 nM

CN1CCC2(CCc3ccc(-c4ccc(C[C@@H](C#N)NC(=O)C(C)(N)C5CCC5)c(F)c4)cc32)CC1 (stereo partly drawn) [Compound 269, 2-amino-N—((S)-1-cyano-2-(2-fluoro-4-(1′-methyl-2,3-dihydrospiro[indene-1,4′-piperidin]-6-yl)phenyl)ethyl)-2-cyclobutylpropanamide]
IC50 [3]: ≥ 2.5 nM
IC50 [2]: ≤ 5 nM

COCCN(C)CCn1c(=O)oc2ccc(-c3ccc(C[C@@H](C#N)NC(=O)[C@@](C)(N)C4CCC4)c(F)c3)cc21 [Compound 270A, (2S)-2-amino-N-[(1S)-1-cyano-2-[2-fluoro-4-(3-{2-[(2-methoxyethyl)(methyl)amino]ethyl}-2-oxo-1,3-benzoxazol-5-yl)phenyl]ethyl]-2-cyclobutylpropanamide]
IC50 [3]: ≥ 2.5 nM
IC50 [2]: ≥ 15 nM

COCCN(C)CCn1c(=O)oc2ccc(-c3ccc(C[C@@H](C#N)NC(=O)[C@](C)(N)C4CCC4)c(F)c3)cc21 [Compound 270B, (2R)-2-amino-N-[(1S)-1-cyano-2-[2-fluoro-4-(3-{2-[(2-methoxyethyl)(methyl)amino]ethyl}-2-oxo-1,3-benzoxazol-5-yl)phenyl]ethyl]-2-cyclobutylpropanamide]
IC50 [3]: 1 to 2.5 nM
IC50 [2]: ≤ 5 nM

Cc1cn2cc(-c3ccc(C[C@@H](C#N)NC(=O)[C@@](C)(N)C4CCC4)c(F)c3)cc2c(C)n1 [Compound 272B, (S)-2-amino-N—((S)-1-cyano-2-(4-(1,3-dimethylpyrrolo[1,2-a]pyrazin-7-yl)-2-fluorophenyl)ethyl)-2-cyclobutylpropanamide]
IC50 [3]: 1 to 2.5 nM
IC50 [2]: 5 to 15 nM

Cn1c(=O)oc2ccc(-c3ccc(C[C@@H](C#N)NC(=O)C4(N)CCCC45CC5)c(F)c3)cc21 (stereo partly drawn) [Compound 273B, (4R)-4-amino-N-[(1S)-1-cyano-2-[2-fluoro-4-(3-methyl-2-oxo-1,3-benzoxazol-5-yl)phenyl]ethyl]spiro[2.4]heptane-4-carboxamide]
IC50 [3]: ≤ 1 nM
IC50 [2]: ≤ 5 nM

CN(C)C[C@H](O)C(=O)N[C@H](C#N)Cc1ccc(-c2ccc3c(n2)CCCN3)cc1F [Compound 276, (2S)—N-[(1S)-1-cyano-2-[2-fluoro-4-(5,6,7,8-tetrahydro-1,5-naphthyridin-2-yl)phenyl]ethyl]-3-(dimethylamino)-2-hydroxypropanamide]
IC50 [3]: ≥ 2.5 nM
IC50 [2]: ≥ 15 nM

CN(C)C[C@H](O)C(=O)N[C@H](C#N)Cc1cc2c(cc1F)-c1ccc(C#N)cc1CO2 [Compound 277A, (2S)—N-[(1S)-1-cyano-2-{8-cyano-2-fluoro-6H-benzo[c]chromen-3-yl}ethyl]-3-(dimethylamino)-2-hydroxypropanamide]
IC50 [3]: ≥ 2.5 nM
IC50 [2]: ≥ 15 nM

CN(C)C[C@H](F)C(=O)N[C@H](C#N)Cc1ccc(-c2ccc3oc(=O)n(C)c3c2)cc1F [Compound 278, (2S)—N-[(1S)-1-cyano-2-[2-fluoro-4-(3-methyl-2-oxo-1,3-benzoxazol-5-yl)phenyl]ethyl]-3-(dimethylamino)-2-fluoropropanamide]
IC50 [3]: ≥ 2.5 nM
IC50 [2]: ≥ 15 nM

CN(C)C[C@H](O)C(=O)N[C@H](C#N)Cc1ccc(-c2ccc3c(c2)C(C2CCN(C4COC4)CC2)OC3)cc1 (stereo partly drawn) [Compound 281, (2S)—N-[(1S)-1-cyano-2-(4-{3-[1-(oxetan-3-yl)piperidin-4-yl]-1,3-dihydro-2-benzofuran-5-yl}phenyl)ethyl]-3-(dimethylamino)-2-hydroxypropanamide]
IC50 [3]: ≥ 2.5 nM
IC50 [2]: ≥ 15 nM

CN(C)C[C@H](O)C(=O)N[C@H](C#N)Cc1ccc(-c2ccc3cnn(C4CCN(C5COC5)CC4)c3c2)cc1 [Compound 282, (2S)—N-[(1S)-1-cyano-2-(4-{1-[1-(oxetan-3-yl)piperidin-4-yl]indazol-6-yl}phenyl)ethyl]-3-(dimethylamino)-2-hydroxypropanamide]
IC50 [3]: ≥ 2.5 nM
IC50 [2]: ≥ 15 nM

CN(C)C[C@H](O)C(=O)N[C@H](C#N)Cc1ccc(-c2ccc3c(c2)C2(CCN(C4COC4)CC2)OC3)cc1F [Compound 283, (2S)—N-[(1S)-1-cyano-2-{2-fluoro-4-[1′-(oxetan-3-yl)-3H-spiro[2-benzofuran-1,4′-piperidin]-6-yl]phenyl}ethyl]-3-(dimethylamino)-2-hydroxypropanamide]
IC50 [3]: ≥ 2.5 nM
IC50 [2]: 5 to 15 nM

CO[C@@H](CN(C)C)C(=O)N[C@H](C#N)Cc1ccc(-c2ccc3c(c2)C2(CCN(C4COC4)CC2)OC3)cc1F [Compound 284, (2S)—N-[(1S)-1-cyano-2-{2-fluoro-4-[1′-(oxetan-3-yl)-3H-spiro[2-benzofuran-1,4′-piperidin]-6-yl]phenyl}ethyl]-3-(dimethylamino)-2-methoxypropanamide]
IC50 [3]: ≥ 2.5 nM
IC50 [2]: 5 to 15 nM

CN(C)C[C@H](O)C(=O)N[C@H](C#N)Cc1ccc(-c2ccc3cnn(C4CCN(C)CC4)c3c2)cc1F [Compound 285, (S)—N—((S)-1-cyano-2-(2-fluoro-4-(1-(1-methylpiperidin-4-yl)-1H-indazol-6-yl)phenyl)ethyl)-3-(dimethylamino)-2-hydroxypropanamide]
IC50 [3]: ≥ 2.5 nM
IC50 [2]: 5 to 15 nM

CO[C@@H](CN(C)C)C(=O)N[C@H](C#N)Cc1ccc(-c2ccc3cnn(C4CCN(C)CC4)c3c2)cc1F [Compound 286, (S)—N—((S)-1-cyano-2-(2-fluoro-4-(1-(1-methylpiperidin-4-yl)-1H-indazol-6-yl)phenyl)ethyl)-3-(dimethylamino)-2-methoxypropanamide]
IC50 [3]: ≥ 2.5 nM
IC50 [2]: 5 to 15 nM

CN(C)C[C@H](O)C(=O)N[C@H](C#N)Cc1ccc(-c2ccc3cnn(C4CCN(C5COC5)CC4)c3c2)cc1F [Compound 287, (2S)—N-[(1S)-1-cyano-2-(2-fluoro-4-{1-[1-(oxetan-3-yl)piperidin-4-yl]indazol-6-yl}phenyl)ethyl]-3-(dimethylamino)-2-hydroxypropanamide]
IC50 [3]: ≥ 2.5 nM
IC50 [2]: 5 to 15 nM

CO[C@@H](CN(C)C)C(=O)N[C@H](C#N)Cc1ccc(-c2ccc3cnn(C4CCN(C5COC5)CC4)c3c2)cc1F [Compound 288, (2S)—N-[(1S)-1-cyano-2-(2-fluoro-4-{1-[1-(oxetan-3-yl)piperidin-4-yl]indazol-6-yl}phenyl)ethyl]-3-(dimethylamino)-2-methoxypropanamide]
IC50 [3]: 1 to 2.5 nM
IC50 [2]: 5 to 15 nM
